Measurements taken from ChEMBL document CHEMBL3046089, “A study on the reactions of alkyl 4,6-bis(4-fluorophenyl)-2-oxocyclohex-3-ene-1-carboxylate and in vitro antioxidant activity of derivatives” (Med Chem Res, 2013).

Experiments:
[1] = Antioxidant activity assessed as concentration equivalent of 0.5 absorbance glutathione for potassium ferricyanide reduction after 20 min by spectrophotometric assay; type: functional
[2] = system: Radical scavenging activity; experiment: Antioxidant activity assessed as DPPH radical scavenging activity at 1 mg/ml after 20 min by spectrophotometric analysis; type: functional

Structure (SMILES)	Activity [1] [mg/mL]	Activity [2] [%]
COC(=O)C1=C(N)C=C(c2ccc(F)cc2)CC1c1ccc(F)cc1 (stereo unspecified)	5.55	40.9
CCOC(=O)C1=C(N)C=C(c2ccc(F)cc2)CC1c1ccc(F)cc1 (stereo unspecified)	25	68
N[C@@H](CCC(=O)N[C@@H](CS)C(=O)NCC(=O)O)C(=O)O	0.595	92.1
O=c1c2c(-c3ccc(F)cc3)cc(-c3ccc(F)cc3)cc2[nH]n1-c1ccccc1	5.55	95.2
O=c1c2c([nH]n1-c1ccc([N+](=O)[O-])cc1)C=C(c1ccc(F)cc1)CC2c1ccc(F)cc1 (stereo unspecified)	3.52	94.4
N/N=C(N)/N=C1/C=C(c2ccc(F)cc2)CC(c2ccc(F)cc2)C1 (stereo unspecified)	4.03	89.2
O=C1Nc2ccccc2Nc2cc(-c3ccc(F)cc3)cc(-c3ccc(F)cc3)c21	2.64	58.7
CCOC(=O)C1/C(=N/NC(N)=O)C=C(c2ccc(F)cc2)CC1c1ccc(F)cc1 (stereo unspecified)	8.33	66.5
COC(=O)c1c(OC)cc(-c2ccc(F)cc2)cc1-c1ccc(F)cc1	14.3	49.1
O=c1[nH][nH]c2c1C(c1ccc(F)cc1)CC(c1ccc(F)cc1)=C2 (stereo unspecified)	1.81	95.9
CCOC(=O)c1c(OC)cc(-c2ccc(F)cc2)cc1-c1ccc(F)cc1	22.7	50.2
O/N=C1/C=C(c2ccc(F)cc2)CC(c2ccc(F)cc2)C1 (stereo unspecified)	4.54	89.2
COC(=O)C1/C(=N/NC(N)=O)C=C(c2ccc(F)cc2)CC1c1ccc(F)cc1 (stereo unspecified)	20	65.4
